Measurements from patent publication US8178683B2, “Antimicrobial ortho-fluorophenyl oxazolidinones for treatment of bacterial infections” (Micurx Pharmaceuticals, Inc., priority 2007, dated 2012).
Converted amounts (≈) assume the structure as drawn. “And” between values parts separate entries of the source, which are not always exact repeats. Equal entries are not always repeated.

What was measured:
[1] = test system: methicillin-resistant Staphylococcus aureus (MRSA); test: Minimum inhibitory concentration (MIC) against MRSA clinical isolate; type: cell-based; details: clinical isolate of MRSA from the Massachusetts General Hospital
From the text: Compounds of this invention can have useful activity against a variety of pathogenic microorganisms. The in vitro activity of compounds of this invention can be assessed by standard testing procedures such as the determination of minimum inhibitory concentration (MIC) by agar dilution as described in “Approved Standard. Methods for Dilution Antimicrobial Susceptibility Tests for Bacteria That Grow Aerobically”, 3rd. ed., published 1993 by the National Committee for Clinical Laboratory Standards, Villanova, Pa., USA. Minimum inhibitory concentration (MIC) refers to the lowest concentration of drug (μg/mL) that inhibits visible growth of the organism. Lower MIC values indicate a higher antibacterial activity. Typically, compounds of present invention have useful potency against Gram-positive or Gram-negative pathogens with MIC values of ≦16 μg/mL. The useful activity of compounds of the present invention against a clinical isolate of methicillin-resistant Staphylococcus aureus (MRSA; from the Massachusetts General Hospital, USA) is illustrated by the MIC data of Table 1.

[2] = target: T1, Human monoamine oxidase (MOA) A type enzyme (Homo sapiens, UniProt P21397); test: MAO-Glo monoamine oxidase A enzyme inhibition assay; type: biochemical; details: human MAO A enzyme (BD Gentest), MAO-Glo kit; Linezolid value of side-by-side test in parenthesis
T1 construct: purchased BD Gentest
T1 sequence (P21397 1-527): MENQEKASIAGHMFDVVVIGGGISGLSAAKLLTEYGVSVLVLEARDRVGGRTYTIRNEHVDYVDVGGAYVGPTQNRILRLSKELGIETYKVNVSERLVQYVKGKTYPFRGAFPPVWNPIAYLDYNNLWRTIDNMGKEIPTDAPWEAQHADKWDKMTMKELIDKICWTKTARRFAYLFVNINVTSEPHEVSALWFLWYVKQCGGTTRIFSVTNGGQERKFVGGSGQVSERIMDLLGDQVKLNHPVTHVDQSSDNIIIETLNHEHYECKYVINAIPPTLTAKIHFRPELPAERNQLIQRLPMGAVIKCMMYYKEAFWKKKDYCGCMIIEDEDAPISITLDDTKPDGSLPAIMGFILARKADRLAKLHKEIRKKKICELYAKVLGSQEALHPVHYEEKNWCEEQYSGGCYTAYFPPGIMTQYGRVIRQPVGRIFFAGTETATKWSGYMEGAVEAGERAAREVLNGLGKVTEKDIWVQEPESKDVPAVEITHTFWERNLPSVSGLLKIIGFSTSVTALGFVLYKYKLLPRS
Description: Human monoamine oxidase (MOA) A type enzyme inhibition activity for select compounds was measured using a commercial MAO assay kit MAO-Glo™ from Promega Co. (USA). The assay was performed as described in the company's technical bulletin “MAO-Glo™ Assay”. The protocol involves an incubation of the MAO A enzyme (BD Gentest™) with a luminogenic MAO substrate to produce an enzymatic product which is converted to luciferin by a coupled reaction. The released luciferin undergoes further transformation to generate light that is detected and measured. The amount of the light is directly proportional to the activity of MAO. Percent inhibition at several concentrations is established relative to the uninhibited control rate, and the IC50 (μg/mL) values are calculated. […] The MAO inhibition data for select compound of this invention are illustrated in the Table 2 below.

[3] = test system: human CD34+ bone marrow cells; test: Myelosuppressive potential: bone marrow CD34+ cell growth inhibition, luminescence assay; type: cell-based; details: 9-10 days at 37° C., Linezolid value of side-by-side test in parenthesis; for IC50: Homo sapiens, CD34+ cell
Description: Myelosuppressive potential (hematopoietic or bone marrow toxicity) was evaluated using human CD34^+ bone marrow cells, generally following methods described by Leach in International Patent Publication No. WO 2006/097828. Thus, an oxazolidinone compound was incubated with fresh human bone marrow cells for 9-10 days at 37° C. in 5% CO2 atmosphere. At end of the incubation period, the bone marrow toxicity was accessed by measuring inhibition (IC50, μg/mL) of CD34^+ cell growth using a luminescence assay. Lower IC50 value indicates a higher myelosuppression potential with enhanced probability of undesired adverse effects in vivo, while a higher IC50 value indicates reduced bone marrow toxicity. The CD34^+ inhibition data for representative compounds of this invention are illustrated in the Table 2 below.

| SMILES | MIC [1] | also measured |
| --- | --- | --- |
| O=C1C=CN(c2ccc(N3C[C@H](Cn4ccnn4)OC3=O)c(F)c2F)CC1 [Example 11] | 1 µg/mL (≈ 2.66 µM) |  |
| Cc1cc(NC[C@H]2CN(c3cc(F)c(N4C=CC(=O)CC4)c(F)c3F)C(=O)O2)no1 [Example 6] | 4 µg/mL (≈ 9.47 µM) |  |
| CC(=O)NC[C@H]1CN(c2cc(F)c(N3CCOCC3)c(F)c2F)C(=O)O1 [Example 26, reference compound] | 2 µg/mL (≈ 5.36 µM) |  |
| COC(=O)NC[C@H]1CN(c2cc(F)c(N3C=CC(=O)CC3)c(F)c2F)C(=O)O1 [Example 4] | 2 µg/mL (≈ 5.01 µM) | IC50 [2]: 54.3 µM; IC50 [3]: 17.7 µg/mL (≈ 44.3 µM) |
| CC(=O)NC[C@H]1CN(c2ccc(N3CCOCC3)c(F)c2)C(=O)O1 [Linezolid, linezolid, reference compound] | 2 µg/mL (≈ 5.93 µM) | IC50 [2]: 11.3 µM; CD34 IC50 [3]: Range 7.9-14.0 μg/mL; CD34 IC50 ([3]; listed as Lin.): 14.0 µg/mL and 8.1 µg/mL; IC50 [3]: 7.9 µg/mL (≈ 23.4 µM) |
| O=C1C=CN(c2ccc(N3C[C@H](CO)OC3=O)c(F)c2F)CC1 [Example 10] | 2 µg/mL (≈ 6.17 µM) |  |
| Cn1nnnc1-c1ccc(-c2ccc(N3C[C@H](CO)OC3=O)c(F)c2F)cn1 [Example 22] | 1 µg/mL (≈ 2.58 µM) |  |
| CC(=O)NC[C@H]1CN(c2cc(F)c(N3C=CC(=O)CC3)cc2F)C(=O)O1 [Example 17] | 4 µg/mL (≈ 10.9 µM) |  |
| Cc1cn(C[C@H]2CN(c3ccc(N4C=CC(=O)CC4)c(F)c3F)C(=O)O2)nn1 [Example 12] | 4 µg/mL (≈ 10.3 µM) |  |
| O=C1C=CN(c2c(F)cc(N3C[C@H](CO)OC3=O)c(F)c2F)CC1 [Example 1] | 4 µg/mL (≈ 11.7 µM) |  |
| O=C1C=CN(c2ccc(N3C[C@H](CNc4ccon4)OC3=O)c(F)c2F)CC1 [Example 14] | 0.25 µg/mL (≈ 0.64 µM) |  |
| O=C1C=CN(c2c(F)cc(N3C[C@H](Cn4ccnn4)OC3=O)c(F)c2F)CC1 [Example 3] | 1 µg/mL (≈ 2.54 µM) |  |
| O=C1C=CN(c2c(F)cc(N3C[C@H](Cn4cc(F)nn4)OC3=O)c(F)c2F)CC1 [Example 20] | 4 µg/mL (≈ 9.72 µM) |  |
| CC(=O)NC[C@H]1CN(c2ccc(N3C=CC(=O)CC3)c(F)c2F)C(=O)O1 [Example 9] | 1 µg/mL (≈ 2.74 µM) |  |
| CCC(=O)NC[C@H]1CN(c2cc(F)c(N3C=CC(=O)CC3)c(F)c2F)C(=O)O1 [Example 7] | 2 µg/mL (≈ 5.03 µM) |  |
| O=C1C=CN(c2ccc(N3C[C@H](COc4ccon4)OC3=O)c(F)c2F)CC1 [Example 16] | 4 µg/mL (≈ 10.2 µM) |  |
| Cn1nnc(-c2ccc(-c3cc(F)c(N4C[C@H](Cn5ccnn5)OC4=O)cc3F)cn2)n1 [Example 21] | 2 µg/mL (≈ 4.55 µM) |  |
| Cc1cn(C[C@H]2CN(c3cc(F)c(N4C=CC(=O)CC4)c(F)c3F)C(=O)O2)nn1 [Example 8] | 4 µg/mL (≈ 9.82 µM) |  |
| CCC(=O)NC[C@H]1CN(c2ccc(N3C=CC(=O)CC3)c(F)c2F)C(=O)O1 [Example 15] | 2 µg/mL (≈ 5.27 µM) |  |
| O=C1C=CN(c2cc(F)c(N3C[C@H](Cn4ccnn4)OC3=O)cc2F)CC1 [Example 18] | 4 µg/mL (≈ 10.7 µM) |  |
| N#Cc1cn(C[C@H]2CN(c3cc(F)c(N4C=CC(=O)CC4)c(F)c3F)C(=O)O2)nn1 [Example 19] | 4 µg/mL (≈ 9.56 µM) |  |
| O=C1C=CN(c2ccc(N3C[C@H](Cn4ccnn4)OC3=O)cc2F)CC1 [Example 25, reference compound] |  | IC50 [2]: 5.04 µM; IC50 [3]: 2.6 µg/mL (≈ 7.28 µM) |
| O=C1C=CN(c2c(F)cc(N3C[C@H](CNc4ccon4)OC3=O)c(F)c2F)CC1 [Example 5] | 1 µg/mL (≈ 2.45 µM) | IC50 [2]: 30.1 µM; IC50 [3]: 15.7 µg/mL (≈ 38.4 µM) |
| CC(=O)NC[C@H]1CN(c2cc(F)c(N3C=CC(=O)CC3)c(F)c2F)C(=O)O1 [Example 2] | 2 µg/mL (≈ 5.22 µM) | IC50 [2]: 148 µM; IC50 [3]: 13.2 µg/mL (≈ 34.4 µM) |
| COC(=O)NC[C@H]1CN(c2ccc(N3C=CC(=O)CC3)c(F)c2F)C(=O)O1 [Example 13] | 1 µg/mL (≈ 2.62 µM) | IC50 [2]: 44.8 µM; IC50 [3]: 6.3 µg/mL (≈ 16.5 µM) |
| COC(=O)NC[C@H]1CN(c2ccc(-c3ccc(-c4nnnn4C)nc3)c(F)c2F)C(=O)O1 [Example 23] | 1 µg/mL (≈ 2.25 µM) |  |
